Data set [1] can be described thus: Selectivity ratio of drug exposure in TNFalpha-induced C57BL/6J mouse at 5 mg/kg, po at 3 hrs post dose to IC50 for inhibition of human TNFalpha expressed in HEK-Blue-CD40L cells assessed as inhibition of NFkappaB activation by quanti-blue based SEAP assay.
Data set [2] is described as follows: Selectivity ratio of drug exposure in TNFalpha-induced C57BL/6J mouse at 25 mg/kg, po at 3 hrs post dose to IC50 for inhibition of human TNFalpha expressed in HEK-Blue-CD40L cells assessed as inhibition of NFkappaB activation by quanti-blue based SEAP assay.
Another data set has as its target T1, Lymphotoxin-beta (Homo sapiens, UniProt Q06643).
T1 sequence (Q06643 whole entry): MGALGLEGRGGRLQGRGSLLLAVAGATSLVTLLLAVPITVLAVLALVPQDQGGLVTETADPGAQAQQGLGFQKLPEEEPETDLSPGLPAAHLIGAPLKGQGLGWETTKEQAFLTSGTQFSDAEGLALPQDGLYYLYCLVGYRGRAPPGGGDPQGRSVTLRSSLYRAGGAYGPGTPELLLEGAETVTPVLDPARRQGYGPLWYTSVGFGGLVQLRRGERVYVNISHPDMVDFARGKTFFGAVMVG
The experiment in a line: Inhibition of LTbeta (unknown origin).

Data set [3] in a line: Oral bioavailability in mouse at 2 mg/kg. It is filed as ADME, organism-based. The settings on record: in vivo.
Data set [4] is described as follows: Selectivity ratio of drug exposure in anticollagen antibody-induced arthritis BALB/c mouse model at 2 mg/kg, po BID for 12 days to IC50 for inhibition of human TNFalpha expressed in HEK-Blue-CD40L cells assessed as inhibition of NFkappaB activation by quanti-blue based SEAP assay.
A short description of data set [5]: Protein binding in human assessed as unbound fraction. It is filed as ADME.
Data set [6] is described as follows: Terminal drug exposure in anticollagen antibody-induced arthritis BALB/c mouse model at 10 mg/kg, po BID followed by LPS stimulation after 6 hrs measured on day 12. It is filed as ADME, organism-based. The settings on record: in vivo, time 12 day, read-out: Drug uptake.

Consider one molecule from ChEMBL document CHEMBL4680302, “Biologic-like In Vivo Efficacy with Small Molecule Inhibitors of TNFα Identified Using Scaffold Hopping and Structure-Based Drug Design Approaches” (J Med Chem, 2020).

Each structure is given as a SMILES string.

As usually defined, the IC50 is the midpoint of a concentration-inhibition curve. Low values mean greater potency, high ones weaker potency. The bioavailability is the share of a dose that reaches the circulation, judged against a reference dose that is usually intravenous. A high value points to good availability. Consider `Cc1nc2cc(F)c(-c3cnc(C(C)(C)O)nc3)nc2c(N[C@H](C)c2cc(C#N)ccc2F)c1Cl`, for which the Selectivity ratio is listed as 2 in data set [1] and 7 in data set [2]. Besides, the half-maximal inhibitory concentration (IC50) against Lymphotoxin-beta was more than 10 µM. This molecule also displayed a bioavailability in data set [3] of 58%. The Ratio in data set [4] is reported as 1. Besides, the Fu in data set [5] was 0.35%. In addition, the concentration at 288 h in data set [6] was determined as 1130 nM.
